Laboratory results reported in ChEMBL document CHEMBL1157199, “Effects of modifications of the linker in a series of phenylpropanoic acid derivatives: Synthesis, evaluation as PPARalpha/gamma dual agonists, and X-ray crystallographic studies” (Bioorg Med Chem, 2008).
Calls of active or inactive are those of the source. The rule behind the calls is not given here.

Columns and labels:
[1] = target: T1, Peroxisome proliferator-activated receptor alpha (Homo sapiens, UniProt Q07869)
T1 sequence (Q07869 whole entry): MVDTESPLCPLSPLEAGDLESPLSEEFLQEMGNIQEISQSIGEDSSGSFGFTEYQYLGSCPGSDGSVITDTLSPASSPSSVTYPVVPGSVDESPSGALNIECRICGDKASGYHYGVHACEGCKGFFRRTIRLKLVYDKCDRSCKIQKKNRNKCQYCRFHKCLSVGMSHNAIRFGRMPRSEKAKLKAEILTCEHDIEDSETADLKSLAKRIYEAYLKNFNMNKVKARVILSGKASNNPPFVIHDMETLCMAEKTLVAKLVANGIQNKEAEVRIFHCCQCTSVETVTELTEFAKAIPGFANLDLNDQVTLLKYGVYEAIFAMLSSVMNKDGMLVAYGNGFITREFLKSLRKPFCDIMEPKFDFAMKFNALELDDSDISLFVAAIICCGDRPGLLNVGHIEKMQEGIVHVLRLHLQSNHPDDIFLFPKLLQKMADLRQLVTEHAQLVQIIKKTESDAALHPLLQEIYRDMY

[2] = AUC in Sprague-Dawley rat plasma at 5 mg/kg, po after 24 hrs; format: ADME, organism-based; design: time < 24 hr, dose 5 mg/kg, route oral
[3] = test system: Mus musculus; assay: Antihyperglycemic effect in ob/ob B6.V-Lepob/J mouse assessed as reduction in blood glucose level at 20 mg/kg once daily after 14 days relative to control; format: functional; design: scale not given: the % may be the effect or the level left
[4] = Clearance in Sprague-Dawley rat plasma after 24 hrs; format: ADME, organism-based
[5] = species: Mus musculus; assay: Antihyperglycemic effect in ob/ob B6.V-Lepob/J mouse assessed as reduction in plasma glucose level after 14 days relative to control; format: functional, organism-based
[6] = Bioavailability in Sprague-Dawley rat plasma at 5 mg/kg, po after 24 hrs; format: ADME, organism-based
[7] = Volume of distribution at steady state in Sprague-Dawley rat plasma after 24 hrs; format: ADME, organism-based; conditions: read-out: Vdss
[8] = Half life in Sprague-Dawley rat plasma at 5 mg/kg, iv after 24 hrs; format: ADME, organism-based; design: dose 5 mg/kg, route intravenous
[9] = Half life in Sprague-Dawley rat plasma at 1 mg/kg, iv after 24 hrs; format: ADME, organism-based; design: dose 1 mg/kg, route intravenous
[10] = test system: Rattus norvegicus; assay: Increase in high density lipoprotein level in Zucker diabetic fa/fa rat at 10 mg/kg, po; format: functional
[11] = test system: Rattus norvegicus; assay: Decrease in fasting serum triglyceride level in Zucker diabetic fa/fa rat at 10 mg/kg, po; format: functional; design: scale not given: the % may be the effect or the level left
[12] = test system: Rattus norvegicus; assay: Reduction of plasma glucose level in Zucker diabetic fa/fa rat at 10 mg/kg, po; format: functional; design: scale not given: the % may be the effect or the level left

CC(=O)N(Cc1ccc(C[C@@H](C(=O)O)n2cccc2)cc1)Cc1nc(-c2ccccc2)oc1C
EC50 [1]: > 30 µM

Cc1oc(-c2ccccc2)nc1CC#Cc1ccc(CC(C(=O)O)c2cccc(-c3ccccc3)c2)cc1 (racemic)
EC50 [1]: 2.8 µM

Cc1oc(-c2ccccc2)nc1CC#Cc1ccc(CC(C(=O)O)c2cccnc2)cc1 (racemic)
EC50 [1]: 16 µM

Cc1oc(-c2ccccc2)nc1CCCc1ccc(C[C@@H](C(=O)O)n2cccc2)cc1
AUC at 24 h [2]: 8650 ng·h/mL | Activity [3]: 70% | clearance [4]: 5.3 mL/min/kg | Activity [5]: Active | bioavailability [6]: 50% | Vd [7]: 1.06 L/kg | half-life [8]: 504 min

CN(C/C=C/c1ccc(C[C@@H](C(=O)O)n2cccc2)cc1)c1ccccn1
EC50 [1]: 29 µM

Cc1oc(-c2ccccc2)nc1CNCc1ccc(C[C@@H](C(=O)O)n2cccc2)cc1
EC50 [1]: > 30 µM

Cc1oc(-c2ccccc2)nc1CC#Cc1ccc(CC(C(=O)O)c2ccc(-c3ccccc3)cc2)cc1 (racemic)
EC50 [1]: 4 µM

CN(CC#Cc1ccc(CC(C(=O)O)n2cccc2)cc1)c1ccccn1 (racemic)
EC50 [1]: > 100 µM

Cc1oc(-c2ccccc2)nc1C/C=C/c1ccc(C[C@@H](C(=O)O)n2cccc2)cc1
AUC at 24 h [2]: 55400 ng·h/mL | Activity [3]: 71% | clearance [4]: 0.9 mL/min/kg | half-life [9]: 336 min | Activity [5]: Active | bioavailability [6]: 62% | Vd [7]: 0.408 L/kg

CN(CC#Cc1ccc(C[C@@H](C(=O)O)n2cccc2)cc1)c1ccccc1
EC50 [1]: > 100 µM

Cc1oc(-c2ccccc2)nc1CN(C)Cc1ccc(C[C@@H](C(=O)O)n2cccc2)cc1
EC50 [1]: 12 µM

CN(C/C=C/c1ccc(C[C@@H](C(=O)O)n2cccc2)cc1)c1ccccc1
EC50 [1]: > 30 µM

Cc1oc(-c2ccccc2)nc1CCNc1ccc(C[C@@H](C(=O)O)n2cccc2)cc1
Activity [3]: inactive

Cc1oc(-c2ccccc2)nc1CCOc1ccc(C[C@@H](C(=O)O)n2cccc2)cc1
Activity [10]: 31% | Activity [11]: 24% | Activity [12]: 40%
